Reference: PubChem BioAssay AID248 (DTP/NCI, 2004)
Values joined by “and” are separate entries in the source; they are usually repeats but may differ in a detail not shown here. Identical values can stand only once. Toxic doses and inconclusive results are not listed. Cut-off read from the data, not from the text of the source: active = T/C of 150% or more; inactive = T/C below 125%. Peptide text beside a SMILES is read from it. * marks the point of attachment. Cbz = O=C(OCc1ccccc1)*

Tested on: L1210 leukemia ip in BDF1 mice, survival T/C
Assay: NCI In Vivo Anticancer Drug Screen. Data for tumor model L1210 Leukemia (intraperitoneal) in B6D2F1 (BDF1) mice
Details: endpoint: mean survival time, higher = longer survival
Summary of the method: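 Each compound was tested against a transplantable tumor grown in mice. The endpoint was survival, with treated animals benchmarked against vehicle controls as a simple ratio.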

[1] = dose: 100.0 mg/kg/injection, schedule: Q04DX002 (ip), vehicle: Klucel (hydroxypropylcellulose) (HPC)
[2] = dose: 200.0 mg/kg/injection, schedule: Q04DX002 (ip), vehicle: Klucel (hydroxypropylcellulose) (HPC)
[3] = dose: 400.0 mg/kg/injection, schedule: Q04DX002 (ip), vehicle: Klucel (hydroxypropylcellulose) (HPC)
[4] = dose: 100.0 mg/kg/injection, schedule: Q04DX003 (ip), vehicle: saline
[5] = dose: 100.0 mg/kg/injection, schedule: Q01DX009 (ip), vehicle: Klucel (hydroxypropylcellulose) (HPC)
[6] = dose: 100.0 mg/kg/injection, schedule: Q04DX003 (ip), vehicle: Klucel (hydroxypropylcellulose) (HPC)
[7] = dose: 200.0 mg/kg/injection, schedule: Q01DX009 (ip), vehicle: Klucel (hydroxypropylcellulose) (HPC)
[8] = dose: 200.0 mg/kg/injection, schedule: Q04DX003 (ip), vehicle: Klucel (hydroxypropylcellulose) (HPC)
[9] = dose: 400.0 mg/kg/injection, schedule: Q01DX009 (ip), vehicle: Klucel (hydroxypropylcellulose) (HPC)
[10] = dose: 400.0 mg/kg/injection, schedule: Q04DX003 (ip), vehicle: Klucel (hydroxypropylcellulose) (HPC)
[11] = dose: 100.0 mg/kg/injection, schedule: Q01DX001 (ip), vehicle: saline
[12] = dose: 200.0 mg/kg/injection, schedule: Q01DX001 (ip), vehicle: saline
[13] = dose: 400.0 mg/kg/injection, schedule: Q01DX001 (ip), vehicle: saline
[14] = dose: 25.0 mg/kg/injection, schedule: Q04DX002 (ip), vehicle: Klucel (hydroxypropylcellulose) (HPC)
[15] = dose: 50.0 mg/kg/injection, schedule: Q04DX002 (ip), vehicle: Klucel (hydroxypropylcellulose) (HPC)
[16] = dose: 100.0 mg/kg/injection, schedule: Q04DX003 (ip), vehicle: saline with Tween-80

Measured: T/C

Cc1cc(Cl)ccc1OC(=O)Nc1cccc2ccccc12
inactive: dose: 50.0 mg/kg/injection, schedule: Q01DX009 (ip), vehicle: carboxymethylcellulose (CMC) 97 % of control and 101 % of control | dose: 50.0 mg/kg/injection, schedule: Q04DX003 (ip), vehicle: carboxymethylcellulose (CMC) 103 % of control | dose: 100.0 mg/kg/injection, schedule: Q01DX009 (ip), vehicle: carboxymethylcellulose (CMC) 102 % of control and 104 % of control | [1] 101 % of control | dose: 100.0 mg/kg/injection, schedule: Q04DX002 (ip), vehicle: carboxymethylcellulose (CMC) 98 % of control and 91 % of control | dose: 100.0 mg/kg/injection, schedule: Q04DX003 (ip), vehicle: carboxymethylcellulose (CMC) 100 % of control | dose: 200.0 mg/kg/injection, schedule: Q01DX009 (ip), vehicle: carboxymethylcellulose (CMC) 94 % of control and 92 % of control | [2] 112 % of control | dose: 200.0 mg/kg/injection, schedule: Q04DX002 (ip), vehicle: carboxymethylcellulose (CMC) 98 % of control and 100 % of control | dose: 200.0 mg/kg/injection, schedule: Q04DX003 (ip), vehicle: carboxymethylcellulose (CMC) 95 % of control | [3] 104 % of control | dose: 400.0 mg/kg/injection, schedule: Q04DX002 (ip), vehicle: carboxymethylcellulose (CMC) 104 % of control

BrCC(Br)C(Br)CBr (configuration not stated)
inactive: dose: 100.0 mg/kg/injection, schedule: Q01DX009 (ip), vehicle: saline 93 % of control | [4] 113 % of control | dose: 200.0 mg/kg/injection, schedule: Q01DX009 (ip), vehicle: saline 97 % of control | dose: 200.0 mg/kg/injection, schedule: Q04DX003 (ip), vehicle: saline 108 % of control | dose: 400.0 mg/kg/injection, schedule: Q01DX009 (ip), vehicle: saline 93 % of control | dose: 400.0 mg/kg/injection, schedule: Q04DX003 (ip), vehicle: saline 98 % of control

O=P(c1c(F)c(F)c(F)c(F)c1F)(c1c(F)c(F)c(F)c(F)c1F)c1c(F)c(F)c(F)c(F)c1F
inactive: dose: 100.0 mg/kg/injection, schedule: Q01DX001 (ip), vehicle: saline with Tween-80 91 % of control | dose: 200.0 mg/kg/injection, schedule: Q01DX001 (ip), vehicle: saline with Tween-80 91 % of control

Cc1ccc(Cl)cc1NC(=O)C(c1ccccc1)c1ccccc1
inactive: [5] 95 % of control | [6] 90 % of control | [7] 94 % of control | [8] 96 % of control | [9] 95 % of control | [10] 88 % of control

COC(=O)C(CC(C)C)NC(=O)C(CC(N)=O)NC(=O)C(NC(=O)OCc1ccccc1)C(C)C (stereo not drawn) (Cbz-Val-Asn-Leu-OMe; configuration not given here)
inactive: [11] 95 % of control | [12] 91 % of control | [13] 91 % of control

Cc1cc(Oc2nc(Cl)nc(C(Cl)(Cl)Cl)c2Cl)cc(C)c1N(C)C (tested in a mixture with another compound)
inactive: [6] 91 % of control | [8] 105 % of control

CN(C)CCCNC(=S)C(=S)NCCCN(C)C
inactive: dose: 50.0 mg/kg/injection, schedule: Q01DX009 (ip), vehicle: Klucel (hydroxypropylcellulose) (HPC) 105 % of control | [5] 105 % of control | [6] 94 % of control | [7] 96 % of control | [8] 94 % of control

Cc1cc(C)nc(CCSS(=O)(=O)O)c1
inactive: [11] 104 % of control | [12] 102 % of control | [13] 98 % of control

NNc1n[nH]c(=S)n1N
inactive: dose: 25.0 mg/kg/injection, schedule: Q04DX003 (ip), vehicle: saline 90 % of control | [4] 97 % of control

CCCCCCCCCCCCC(C)C(=O)O (configuration not stated)
inactive: [14] 96 % of control | [15] 93 % of control | [5] 105 % of control | [1] 101 % of control | [7] 91 % of control | [2] 98 % of control | [9] 91 % of control | [3] 98 % of control

NC1CCS(=O)(=O)CC1
inactive: dose: 100.0 mg/kg/injection, schedule: Q01DX001 (ip), vehicle: water 93 % of control | dose: 200.0 mg/kg/injection, schedule: Q01DX001 (ip), vehicle: water 101 % of control | dose: 400.0 mg/kg/injection, schedule: Q01DX001 (ip), vehicle: water 104 % of control

Cc1cc(Cl)ccc1OC(=O)COc1cc(Cl)c(Cl)cc1Cl
inactive: dose: 1.56 mg/kg/injection, schedule: Q04DX002 (ip), vehicle: Klucel (hydroxypropylcellulose) (HPC) 108 % of control | dose: 3.13 mg/kg/injection, schedule: Q04DX002 (ip), vehicle: Klucel (hydroxypropylcellulose) (HPC) 108 % of control | dose: 6.25 mg/kg/injection, schedule: Q04DX002 (ip), vehicle: Klucel (hydroxypropylcellulose) (HPC) 105 % of control | dose: 12.5 mg/kg/injection, schedule: Q04DX002 (ip), vehicle: Klucel (hydroxypropylcellulose) (HPC) 95 % of control | [14] 100 % of control | [15] 100 % of control

CCCCCCCCOc1ccc(C=Nc2ccc(CC)cc2)cc1
inactive: [5] 97 % of control | [7] 86 % of control | [9] 91 % of control

O=C1CCC(c2cccc([N+](=O)[O-])c2)=NN1
inactive: [5] 89 % of control | [7] 93 % of control | [9] 89 % of control

Cc1ccc(NC(=O)Oc2ccc(Cl)cc2Cl)cc1NC(=O)Oc1ccc(Cl)cc1Cl
inactive: [5] 89 % of control | [7] 94 % of control | [9] 89 % of control

CC1OC(n2cnc3c(=S)nc[nH]c32)C(O)C1O (configuration not stated)
inactive: dose: 50.0 mg/kg/injection, schedule: Q01DX001 (ip), vehicle: saline 93 % of control | [11] 96 % of control | [12] 102 % of control | [13] 93 % of control

Cn1ccc(=O)c2cc([N+](=O)[O-])ccc21
inactive: dose: 25.0 mg/kg/injection, schedule: Q01DX009 (ip), vehicle: water 90 % of control | dose: 50.0 mg/kg/injection, schedule: Q01DX009 (ip), vehicle: water 93 % of control | dose: 100.0 mg/kg/injection, schedule: Q01DX009 (ip), vehicle: water 86 % of control | dose: 100.0 mg/kg/injection, schedule: Q04DX002 (ip), vehicle: saline with Tween-80 104 % of control and 106 % of control | [16] 115 % of control and 90 % of control | dose: 200.0 mg/kg/injection, schedule: Q01DX009 (ip), vehicle: water 95 % of control | dose: 200.0 mg/kg/injection, schedule: Q04DX002 (ip), vehicle: saline with Tween-80 109 % of control and 87 % of control | dose: 200.0 mg/kg/injection, schedule: Q04DX003 (ip), vehicle: saline with Tween-80 97 % of control and 102 % of control | dose: 400.0 mg/kg/injection, schedule: Q04DX002 (ip), vehicle: saline with Tween-80 87 % of control and 88 % of control | dose: 400.0 mg/kg/injection, schedule: Q04DX003 (ip), vehicle: saline with Tween-80 88 % of control

Clc1ccccc1C(c1ccccc1)(c1ccc2ccccc2c1)n1ccnc1 (configuration not stated)
inactive: [6] 102 % of control | [8] 101 % of control | [10] 101 % of control

CCCCCCCCCCCC(=O)[O][Pb]([CH2]C)([CH2]C)[CH2]C
inactive: dose: 6.25 mg/kg/injection, schedule: Q04DX003 (ip), vehicle: saline with Tween-80 101 % of control | dose: 12.5 mg/kg/injection, schedule: Q04DX003 (ip), vehicle: saline with Tween-80 102 % of control | [16] 106 % of control

O=C1c2ccccc2C(=O)c2c(Nc3ccccc3)ccc(O)c21
inactive: [6] 97 % of control | [8] 98 % of control

CCC(C)c1c(N)nc(N)[nH]c1=O (configuration not stated)
inactive: [6] 94 % of control | [8] 106 % of control | [10] 110 % of control
